Measured values taken from ChEMBL document CHEMBL1153587, “Design, synthesis and biological evaluation of novel nitrogen and sulfur containing hetero-1,4-naphthoquinones as potent antifungal and antibacterial agents” (2009).
Values after ≈ are worked out from the molar mass of the structure shown.

Assays:
Assay type in all cases: functional
Candida albicans = assay: Antifungal activity against Candida albicans after 48 hrs by broth microdilution method
Cryptococcus neoformans = assay: Antifungal activity against Cryptococcus neoformans after 72 hrs by broth microdilution method
Sporothrix schenckii = assay: Antifungal activity against Sporothrix schenckii after 72 hrs by broth microdilution method
[1] = tested on: Trichophyton mentagrophytes; assay: Antifungal activity against sTrichophyton mentagrophytes after 96 hrs by broth microdilution method
Aspergillus fumigatus = assay: Antifungal activity against Aspergillus fumigatus after 72 hrs by broth microdilution method
Candida parapsilosis = assay: Antifungal activity against Candida parapsilosis ATCC 22019 after 48 hrs by broth microdilution method; conditions: Lodderomyces parapsilosis, ATCC 22019, 48 h
Escherichia coli = assay: Antibacterial activity against Escherichia coli after 24 hrs by broth microdilution method
Staphylococcus aureus = assay: Antibacterial activity against Staphylococcus aureus ATCC 25923 after 24 hrs by broth microdilution method; conditions: ATCC 25923, 24 h
Klebsiella pneumoniae = assay: Antibacterial activity against Klebsiella pneumoniae ATCC 27736 after 24 hrs by broth microdilution method; conditions: ATCC 27736, 24 h

Compound | MIC (Candida albicans) [µg/mL] | MIC (Cryptococcus neoformans) [µg/mL] | MIC (Sporothrix schenckii) [µg/mL] | MIC [1] [µg/mL] | MIC (Aspergillus fumigatus) [µg/mL] | MIC (Candida parapsilosis) [µg/mL] | MIC (Escherichia coli) [µg/mL] | MIC (Staphylococcus aureus) [µg/mL] | MIC (Klebsiella pneumoniae) [µg/mL]
NC1=C(Sc2cccc3ccccc23)C(=O)c2ccccc2C1=O | 25 (≈ 75.4 µM) | 50 (≈ 151 µM) | > 50 | 25 (≈ 75.4 µM) | 25 (≈ 75.4 µM) | 50 (≈ 151 µM) | > 50 | 12.5 (≈ 37.7 µM) | 12.5 (≈ 37.7 µM)
O=C1C(Cl)=C(N(c2ccccc2)c2ccccc2)C(=O)c2ccccc21 | 12.5 (≈ 34.7 µM) | 25 (≈ 69.5 µM) | 6.25 (≈ 17.4 µM) | 50 (≈ 139 µM) | 50 (≈ 139 µM) | 12.5 (≈ 34.7 µM) | > 50 | 25 (≈ 69.5 µM) | 25 (≈ 69.5 µM)
O=C1C(Cl)=C(NCCN2C(=O)c3ccccc3C2=O)C(=O)c2ccccc21 |  |  |  |  |  |  | 6.25 (≈ 16.4 µM) | 6.25 (≈ 16.4 µM) | 50 (≈ 131 µM)
OC(Cn1cncn1)(Cn1cncn1)c1ccc(F)cc1F [FLUCONAZOLE] | 1 (≈ 3.27 µM) | 0.5 (≈ 1.63 µM) | 2 (≈ 6.53 µM) | 1.56 (≈ 5.09 µM) | 2 (≈ 6.53 µM) | 1 (≈ 3.27 µM) |  |  | 
COc1cccc(SC2=C(N)C(=O)c3ccccc3C2=O)c1 | 12.5 (≈ 40.1 µM) | 12.5 (≈ 40.1 µM) | 25 (≈ 80.3 µM) | 12.5 (≈ 40.1 µM) | 6.25 (≈ 20.1 µM) | 25 (≈ 80.3 µM) | > 50 | 25 (≈ 80.3 µM) | 12.5 (≈ 40.1 µM)
O=C1C(Nc2ccccc2)=C(Sc2cccc3ccccc23)C(=O)c2ccccc21 | 50 (≈ 123 µM) | > 50 | > 50 | > 50 | > 50 | > 50 |  |  | 
O=C1C(Sc2ccccc2)=C(N(c2ccccc2)c2ccccc2)C(=O)c2ccccc21 |  |  |  |  |  |  | > 50 | 50 (≈ 115 µM) | 50 (≈ 115 µM)
NC1=C(Sc2ccccc2)C(=O)c2ccccc2C1=O | 12.5 (≈ 44.4 µM) | 25 (≈ 88.9 µM) | 25 (≈ 88.9 µM) | 12.5 (≈ 44.4 µM) | 6.25 (≈ 22.2 µM) | 12.5 (≈ 44.4 µM) | > 50 | 6.25 (≈ 22.2 µM) | 1.56 (≈ 5.54 µM)
N#Cc1ccccc1NC1=C(Br)C(=O)c2ccccc2C1=O | 25 (≈ 70.8 µM) | 12.5 (≈ 35.4 µM) | > 50 | 6.25 (≈ 17.7 µM) | > 50 | 12.5 (≈ 35.4 µM) |  |  | 
COc1cccc(SC2=C(Cl)C(=O)c3ccccc3C2=O)c1 |  |  |  |  |  |  | 12.5 (≈ 37.8 µM) | 25 (≈ 75.6 µM) | > 50
O=C1C(Nc2ccccc2)=C(Sc2ccccc2)C(=O)c2ccccc21 |  |  |  |  |  |  | > 50 | > 50 | 25 (≈ 69.9 µM)
Clc1ccc(COC(Cn2ccnc2)c2ccc(Cl)cc2Cl)c(Cl)c1 (stereo not drawn) [MICONAZOLE] | 25 (≈ 60.1 µM) | 12.5 (≈ 30 µM) |  | < 0.78 | 12.5 (≈ 30 µM) |  |  |  | 
O=C1C(Cl)=C(Sc2ccccc2)C(=O)c2ccccc21 |  |  |  |  |  |  | 12.5 (≈ 41.6 µM) | 25 (≈ 83.1 µM) | > 50
O=c1c2[nH]c3ccccc3sc=2c(=O)c2ccccc12 |  |  |  |  |  |  | 25 (≈ 89.5 µM) | 25 (≈ 89.5 µM) | > 50
NC[C@H]1O[C@H](O[C@H]2[C@H](O)[C@@H](O[C@H]3O[C@H](CO)[C@@H](O)[C@H](N)[C@H]3O)[C@H](N)C[C@@H]2N)[C@H](O)[C@@H](O)[C@@H]1O [KANAMYCIN] |  |  |  |  |  |  | 16 (≈ 33 µM) | 2 (≈ 4.13 µM) | 32 (≈ 66 µM)
Cn1c(N)c2ccccc2nc2c(=O)c3ccccc3c(=O)c1=2 | > 50 | 50 (≈ 165 µM) | 25 (≈ 82.4 µM) | 25 (≈ 82.4 µM) | 25 (≈ 82.4 µM) | 50 (≈ 165 µM) | 25 (≈ 82.4 µM) | > 50 | 50 (≈ 165 µM)
